For ten molecules, inhibition and pest or weed control results are on record in patent US11535594B2, “Microbiocidal picolinamide derivatives” (Syngenta Participations AG, priority 2017, dated 2022).

As a reminder, the inhibition is the relative decrease from the control value, in per cent.

Assay [1] concerns Mycosphaerella Graminicola (Septoria tritici). The assay is described as follows: Mycosphaerella graminicola (Septoria tritici) / liquid culture (Septoria blotch). The assay is classed as cell-based. The note with it: Zymoseptoria tritici, PDB potato dextrose broth, 24° C., 4 to 5 days after application, compared to untreated checks, read-out: disease control (inhibition of growth, photometric). On the procedure:
Mycosphaerella Graminicola (Septoria tritici)/Liquid Culture (Septoria Blotch) Conidia of the fungus from cryogenic storage are directly mixed into nutrient broth (PDB potato dextrose broth). After placing a (DMSO) solution of test compound into a microtiter plate (96-well format), the nutrient broth containing the fungal spores is added. The test plates are incubated at 24° C. and the inhibition of growth is determined photometrically 4 to 5 days after application.

The test system of assay [2] is Monographella nivalis (Microdochium nivale). As to the kind of experiment: Monographella nivalis (Microdochium nivale) / liquid culture (foot rot cereals). The assay is classed as cell-based. The note with it: PDB potato dextrose broth, 24° C., 4-5 days after application, compared to untreated checks, read-out: disease control (inhibition of growth, photometric). How it is done:
Monographella nivalis (Microdochium nivale)/Liquid Culture (Foot Rot Cereals) Conidia of the fungus from cryogenic storage are directly mixed into nutrient broth (PDB potato dextrose broth). After placing a (DMSO) solution of test compound into a microtiter plate (96-well format), the nutrient broth containing the fungal spores is added. The test plates are incubated at 24° C. and the inhibition of growth is determined photometrically 4-5 days after application.

For assay [3], the system named is Puccinia Recondite f. Sp. Tritici. As to the kind of experiment: Puccinia recondita f. sp. tritici / wheat / leaf disc preventative (brown rust). The class given is in vivo. The note with it: foliar, wheat leaf segments cv. Kanzler, inoculated 1 day after application, assessed 7-9 days after application, compared to untreated, read-out: disease control. How it is done:
Puccinia Recondite f. Sp. Tritici/Wheat/Leaf Disc Preventative (Brown Rust) Wheat leaf segments cv. Kanzler are placed on agar in multiwell plates (24-well format) and sprayed with the formulated test compound diluted in water. The leaf disks are inoculated with a spore suspension of the fungus 1 day after application. The inoculated leaf segments are incubated at 19° C. and 75% rh under a light regime of 12 h light/12 h darkness in a climate cabinet and the activity of a compound is assessed as percent disease control compared to untreated when an appropriate level of disease damage appears in untreated check leaf segments (7-9 days after application).

For assay [4], the system named is Mycosphaerella arachidis (Cercospora arachidicola). As to the kind of experiment: Mycosphaerella arachidis (Cercospora arachidicola) / liquid culture (early leaf spot). The class given is cell-based. The note with it: PDB potato dextrose broth, 24° C., 4-5 days after application, compared to untreated checks, read-out: disease control (inhibition of growth, photometric). How it is done:
Mycosphaerella arachidis (Cercospora arachidicola)/Liquid Culture (Early Leaf Spot) Conidia of the fungus from cryogenic storage are directly mixed into nutrient broth (PDB potato dextrose broth). After placing a (DMSO) solution of test compound into a microtiter plate (96-well format), the nutrient broth containing the fungal spores is added. The test plates are incubated at 24° C. and the inhibition of growth is determined photometrically 4-5 days after application.

In assay [5] the test system is Phaeosphaeria nodorum (Septoria nodorum). As to the kind of experiment: Phaeosphaeria nodorum (Septoria nodorum) / wheat / leaf disc preventative (glume blotch). The note with it: Parastagonospora nodorum, foliar, 120 h, wheat leaf segments cv. Kanzler, inoculated 2 days after application, assessed 5-7 days after application, compared to untreated, read-out: disease control. The class given is in vivo. On the procedure: Phaeosphaeria nodorum (Septoria nodorum)/Wheat/Leaf Disc Preventative (Glume Blotch) Wheat leaf segments cv. Kanzler are placed on agar in a multiwell plate (24-well format) and sprayed with the formulated test compound diluted in water. The leaf disks are inoculated with a spore suspension of the fungus 2 days after application. The inoculated test leaf disks are incubated at 20° C. and 75% rh under a light regime of 12 h light/12 h darkness in a climate cabinet and the activity of a compound is assessed as percent disease control compared to untreated when an appropriate level of disease damage appears in untreated check leaf disks (5-7 days after application).

The subject of assay [6] is Glomerella Lagenarium (Colletotrichum lagenarium). The assay is described as follows: Glomerella lagenarium (Colletotrichum lagenarium) / liquid culture (anthracnose). The assay is classed as cell-based. The following applies: Colletotrichum orbiculare, PDB potato dextrose broth, 24° C., 3 to 4 days after application, compared to untreated checks, read-out: disease control (inhibition of growth, photometric). On the procedure: Glomerella Lagenarium (Colletotrichum lagenarium)/Liquid Culture (Anthracnose) Conidia of the fungus from cryogenic storage are directly mixed into nutrient broth (PDB potato dextrose broth). After placing a (DMSO) solution of test compound into a microtiter plate (96-well format), the nutrient broth containing the fungal spores is added. The test plates are incubated at 24° C. and the inhibition of growth is measured photometrically 3 to 4 days after application.

Regarding `COc1ccnc(C(=O)N[C@@H](C)C(=O)ON(C)C(c2ccc(C(C)(C)C)cc2)c2ccc(C(C)(C)C)cc2)c1O` [I.aa.01, [bis(4-tert-butylphenyl)methyl-methyl-amino] (2S)-2-[(3-hydroxy-4-methoxy-pyridine-2-carbonyl)amino]propanoate], the inhibition at 200 ppm in assay [1] and in assay [2] was at least 80% in each case.

For the molecule `COc1ccnc(C(=O)N[C@@H](C)C(=O)ON(C)C(c2ccccc2)C(C)C)c1O` (stereo partly drawn) [I.d.01, [methyl-(2-methyl-1-phenyl-propyl)amino] (2S)-2-[(3-hydroxy-4-methoxy-pyridine-2-carbonyl)amino] propanoate], the pest or weed control at 200 ppm in assay [3] is at least 80%. The inhibition at 200 ppm in assay [1] and in assay [4] was at least 80% in each case.

Consider `COc1ccnc(C(=O)N[C@@H](C)C(=O)ON(C)C(c2ccccc2)C2CC2)c1O` (stereo partly drawn) [I.e.01, [[cyclopropyl(phenyl)methyl]-methyl-amino] (2S)-2-[(3-hydroxy-4-methoxy-pyridine-2-carbonyl)amino] propanoate], for which the pest or weed control at 200 ppm in assay [5] is at least 80%. Moreover, the inhibition at 200 ppm in assay [1] was at least 80%.

Turning to `COc1ccnc(C(=O)N[C@@H](C)C(=O)ON(C)C(c2ccc3ccccc3c2)C2CC2)c1O` (stereo partly drawn) [I.g.01, [[cyclopropyl(2-naphthyl)methyl]-methyl-amino] (2S)-2-[(3-hydroxy-4-methoxy-pyridine-2-carbonyl)amino] propanoate], in assay [5], the pest or weed control at 200 ppm was at least 80%.

Turning to `COc1ccnc(C(=O)N[C@@H](C)C(=O)ON(C)C(c2ccccc2)C2CCCCC2)c1O` (stereo partly drawn) [I.j.01, [[cyclohexyl(phenyl)methyl]-methyl-amino] (2S)-2-[(3-hydroxy-4-methoxy-pyridine-2-carbonyl)amino] propanoate], the pest or weed control at 200 ppm in assay [5] was at least 80%.

For `COc1ccnc(C(=O)N[C@@H](C)C(=O)ON(C)C(c2ccccc2)c2ccc(Cl)cc2)c1O` (stereo partly drawn) [I.o.01, [[(4-chlorophenyl)-phenyl-methyl]-methyl-amino] (2S)-2-[(3-hydroxy-4-methoxy-pyridine-2-carbonyl)amino]propanoate], the pest or weed control at 200 ppm in assay [3] and in assay [5] was at least 80% throughout. Besides, the inhibition at 200 ppm in assay [1], in assay [4] and in assay [6] was at least 80% throughout.

For the molecule `COc1ccnc(C(=O)N[C@@H](C)C(=O)ON(C)C(c2ccccc2)c2ccc3ccccc3c2)c1O` (stereo partly drawn) [I.r.01, [methyl-[2-naphthyl(phenyl)methyl]amino] (2S)-2-[(3-hydroxy-4-methoxy-pyridine-2-carbonyl)amino] propanoate], the pest or weed control at 200 ppm in assay [5] was at least 80%.

`COc1ccnc(C(=O)N[C@@H](C)C(=O)ON(C)C(c2ccc(F)cc2)c2ccc(F)cc2)c1OC(C)=O` [I.s.13, [bis(4-fluorophenyl)methyl-methyl-amino] (2S)-2-[(3-acetoxy-4-methoxy-pyridine-2-carbonyl)amino]propanoate]: the pest or weed control at 200 ppm in assay [3] and in assay [5] was at least 80% throughout. The inhibition at 200 ppm in assay [1] and in assay [4] was at least 80% in each case.

As for `CCC(c1ccc(Cl)cc1)(c1ccc(Cl)cc1)N(C)OC(=O)[C@H](C)NC(=O)c1nccc(OC)c1O` [I.u.03, [1,1-bis(4-chlorophenyl)propyl-methyl-amino] (2S)-2-[(3-hydroxy-4-methoxy-pyridine-2-carbonyl)amino]propanoate], the inhibition at 200 ppm in assay [1], in assay [4] and in assay [2] was at least 80% throughout.

As to `COc1ccnc(C(=O)N[C@@H](C)C(=O)ON(C)C(c2cc(C)cc(C)c2)c2cc(C)cc(C)c2)c1O` [I.x.01, [bis(3,5-dimethylphenyl)methyl-methyl-amino] (2S)-2-[(3-hydroxy-4-methoxy-pyridine-2-carbonyl)amino]propanoate], the inhibition at 200 ppm in assay [1], in assay [2] and in assay [6] was at least 80% in each case.
